{"source": "paper PMC8820820", "about": "“Feasibility and safety of targeting mitochondria for cancer therapy – preclinical characterization of gamitrinib, a first-in-class, mitochondriaL-targeted small molecule Hsp90 inhibitor” (Cancer Biology & Therapy, 2022)", "key": {"[1]": {"design": "species or system beagle dogs", "conditions": "dog, in vivo", "protocol": "(§1) Eighteen male and female (5–6 mo old) purebred beagle dogs (Cumberland, VA) were acclimated for 47 d (20°C to 26°C, relative humidity 30–70%, 10 or greater air changes/h, and a 12-h light/dark cycle) prior to study initiation. Animals were given water ad libitum and Certified Canine Diet #5007 (PMI Nutrition International Certified LabDiet®) for 4 to 5 h each day. At study initiation, animal body weights ranged from 8.6 to 11.5 kg for males and 6.0 to 9.4 kg for females. At least 1 week prior to initiation of dosing, animals were fasted overnight, anesthetized, and a catheter attached to a subcutaneous vascular access port was surgically implanted into a jugular vein. Animals were acclimated to infusion jackets prior to catheter implantation surgery. Animals were infused with sterile saline at a dose rate of 5 mL/h when the vascular access ports were accessed and when animals were connected to the infusion system (except when dosed with the test or vehicle control article). The patency of each catheter was checked as needed. Prednisolone tablets were administered orally at 2 mg/kg the night prior to dosing. Diphenhydramine (5 mg/kg; IM injection 0.1 mL/kg, 50 mg/mL) was administered prior to dosing and post the start of infusion (d 1 only). Male and female dogs received dose levels of Gamitrinib of 1.25, 3.33 and 6.25 mg/kg/dose formulated as indicated above during a 1 h infusion on d 1, 8, 11, 15, 18, 22, 25, 29, 32, and 36 at a volume of 2 mL/kg. The vehicle control was as above. […] Dosing was stopped, and 23 of 24 animals were administered additional diphenhydramine, 11 were administered Flunixin meglumine and buprenorphine, and 6 were administered acepromazine. Symptoms subsided in all animals after completion of these interventions. As a result of these observations, the polysorbate levels, which were increased from 0.025% (w/v) to 0.125% (w/v) to minimize precipitation, were returned to the original concentrations; 2 mg/kg prednisone was administered orally the night prior to dosing; and the diphenhydramine pretreatment dose was updated to 5 mg/kg 15 to 30 min prior to dosing. Detailed observations were conducted for each animal up to seven times during the predose phase, prior to dosing on d 1, 8, 15, 22, 29, and 36 of the dosing phase, and on d 1, 7, and 14 of the recovery phase. Blood samples (1 mL) were collected via the cephalic vein 5, 15, and 30 min and 1, 4, 8, and 24 h post the end of infusion on d 8 and 36 of the dosing phase. Formalin-fixed and paraffin-embedded tissue samples collected at the end of the study (d 39) were processed for histologic examination."}, "Kir2.1": {"target": "T1, Kir2.1 (Homo sapiens, UniProt P63252)", "T1 sequence (P63252 1-427)": "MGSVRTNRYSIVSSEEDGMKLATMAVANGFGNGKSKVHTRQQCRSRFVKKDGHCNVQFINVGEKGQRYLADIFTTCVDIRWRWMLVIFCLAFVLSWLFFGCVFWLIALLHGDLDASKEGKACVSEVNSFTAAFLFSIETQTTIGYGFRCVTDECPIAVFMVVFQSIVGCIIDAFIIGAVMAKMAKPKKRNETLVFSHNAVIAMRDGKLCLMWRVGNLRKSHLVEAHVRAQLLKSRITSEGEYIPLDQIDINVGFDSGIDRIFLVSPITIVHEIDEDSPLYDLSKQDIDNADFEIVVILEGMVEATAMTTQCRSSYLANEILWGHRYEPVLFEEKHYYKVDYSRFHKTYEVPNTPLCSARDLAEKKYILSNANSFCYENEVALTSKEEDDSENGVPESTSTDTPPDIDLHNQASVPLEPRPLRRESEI", "assay": "Ion channel screening", "type": "cell-based", "conditions": "10 µM, pulse 10", "text": "Ion channel screening. […] Human Kir2.1 currents were evoked from a holding potential of -20 mV by a series of 10 500 msec pulses to -120 mV using a 200 msec interval between pulses. The parameters measured were the amplitudes of the instantaneous inward currents evoked on stepping to -120 mV for the 1st pulse and the maximum inward current at the end of the 10th hyperpolarizing pulse. For all experiments, data were filtered for seal quality, seal drop, and current amplitude."}, "tumor cell": {"system": "tumor cell", "design": "method as in PMID 19229106, PMID 29348817", "conditions": "in culture; read-out: IC50 of tumor cell killing; cited from earlier work"}, "beagle dogs": {"system": "beagle dogs", "assay": "Toxicity in beagle dogs", "type": "in vivo", "protocol": "as §1"}}, "note": "Where two headings read alike, the source gives them in different places.", "data": [{"smiles": "COC1C=CC=C(C)C(=O)NC2=CC(=O)C(NCCCCCC[P+](c3ccccc3)(c3ccccc3)c3ccccc3)=C(CC(C)CC(OC)C(O)C(C)C=C(C)C1OC(N)=O)C2=O.F[P-](F)(F)(F)(F)F", "note": "(stereo not drawn) [Gamitrinib]", "values": [{"measurement": "AUC0–24", "setting": "[1]; 3.33 mg/kg", "value": "1740 ± 713", "unit": "ng·h/mL"}, {"measurement": "Cmax", "setting": "[1]; 3.33 mg/kg", "value": "560 ± 404", "unit": "ng/mL"}, {"measurement": "AUC0–24", "setting": "[1]; 6.25 mg/kg", "value": "3290 ± 1090", "unit": "ng·h/mL"}, {"measurement": "Cmax", "setting": "[1]; 6.25 mg/kg", "value": "1260 ± 556", "unit": "ng/mL"}, {"measurement": "inhibition of Kir2.1 currents", "setting": "Kir2.1", "value": "−7.3 ± 3.4", "unit": "%"}, {"measurement": "IC50", "setting": "tumor cell", "value": "1000 to 4000", "unit": "nM"}, {"measurement": "Bone marrow and liver parameters", "setting": "beagle dogs; dog, in vivo", "value": "unremarkable"}, {"measurement": "organ weight", "setting": "beagle dogs; dog, in vivo", "value": "No Gamitrinib-related changes in organ weight"}, {"measurement": "kidney microscopic findings", "setting": "beagle dogs; dog, in vivo, 6.25 mg/kg", "value": "slight to moderate kidney tubular degeneration/regeneration"}, {"measurement": "serum urea nitrogen and creatinine", "setting": "beagle dogs; dog, in vivo, 6.25 mg/kg", "value": "trend of increased serum urea nitrogen and creatinine"}, {"measurement": "NOAEL", "setting": "beagle dogs; dogs, IV for 36 d", "value": 3.33, "unit": "mg/kg/dose"}, {"measurement": "highest non-severely toxic dose (HNSTD)", "setting": "beagle dogs; dogs, IV for 36 d", "value": 6.25, "unit": "mg/kg/dose"}]}]}
